Measured values taken from ChEMBL document CHEMBL1149383, “Discovery of a daunorubicin analogue that exhibits potent antitumor activity and overcomes P-gp-mediated drug resistance” (J Med Chem, 2006).
The source made the active and inactive calls. The rule behind the calls is not given here.

Tests used:
[1] = test system: K562; experiment: Increase in the level of drug uptake in Dox-resistant K562 cells in presence of cyclosporine over its absence; assay type: functional, cell-based; conditions: Homo sapiens
[2] = test system: K562; experiment: Increase in the level of drug efflux in Dox-resistant K562 cells in presence of cyclosporine over its absence; assay type: functional, cell-based; conditions: Homo sapiens
[3] = test system: Mus musculus; experiment: Survival in mice with Dox-resistant K562 xenografts after 50 days at 5-10 mg/kg, ip; assay type: functional
[4] = test system: K562; experiment: Drug resistance index, ratio of IC50 in Dox-resistant K562 cells over Dox-sensitive cells; assay type: functional, Homo sapiens
[5] = test system: K562; experiment: Increase in cytotoxicity against Dox-resistant K562 cells in presence of Cyclosporine over its absence; assay type: functional, cell-based; conditions: Homo sapiens
[6] = test system: KB 3-1; experiment: Cytotoxicity against drug resistant KB-V cells; assay type: functional, cell-based; conditions: Homo sapiens
[7] = test system: KB 3-1; experiment: Cytotoxicity against human epidermoid carcinoma KB-3-1 cells; assay type: functional, cell-based
[8] = test system: K562; experiment: Cytotoxicity against Dox-resistant K562 cells by MTS; assay type: functional, cell-based; conditions: Homo sapiens
[9] = test system: Mus musculus; experiment: Mortality in mice with Dox-resistant K562 xenografts in 20 days at 5-10 mg/kg, ip; assay type: functional
[10] = test system: K562; experiment: Cytotoxicity against Dox-resistant K562 cells by MTS at 1 uM and in presence of cyclosporine; assay type: functional, Homo sapiens
[11] = test system: K562; experiment: Cytotoxicity against Dox-resistant K562 cells by MTS at 1 uM and in absence of cyclosporine; assay type: functional, Homo sapiens

Row | Compound | Activity [1] | Activity [2] | Ratio IC50 [4] | other results
1 | COc1cccc2c1C(=O)c1c(O)c3c(c(O)c1C2=O)C[C@@](O)(C(C)=O)C[C@@H]3O[C@H]1C[C@H](n2cc(CCO)nn2)[C@H](O)[C@H](C)O1 | inactive | inactive | – | –
2 | COc1cccc2c1C(=O)c1c(O)c3c(c(O)c1C2=O)C[C@@](O)(C(C)=O)C[C@@H]3O[C@H]1C[C@H](N=[N+]=[N-])[C@H](O)[C@H](C)O1 | inactive | inactive | 13 | Activity [3]: 100%; Activity [5]: inactive; IC50 [6]: 300 nM; IC50 [7]: 300 nM
3 | COc1cccc2c1C(=O)c1c(O)c3c(c(O)c1C2=O)C[C@@](O)(C(C)=O)C[C@@H]3O[C@H]1C[C@H](n2cc(CCCCO)nn2)[C@H](O)[C@H](C)O1 | inactive | inactive | – | –
4 | COc1cccc2c1C(=O)c1c(O)c3c(c(O)c1C2=O)C[C@@](O)(C(C)=O)C[C@@H]3O[C@H]1C[C@H](N)[C@H](O)[C@H](C)O1 [DAUNORUBICIN] | Active | Active | 333 | IC50 [8]: > 5000 nM; Activity [9]: 50%; Activity [10]: 70%; Activity [11]: 30%
5 | COc1cccc2c1C(=O)c1c(O)c3c(c(O)c1C2=O)C[C@@](O)(C(C)=O)C[C@@H]3O[C@H]1C[C@H](n2cc(CCCO)nn2)[C@H](O)[C@H](C)O1 | inactive | inactive | – | –
6 | COc1cccc2c1C(=O)c1c(O)c3c(c(O)c1C2=O)C[C@@](O)(C(C)=O)C[C@@H]3O[C@H]1C[C@H](n2cc(CO)nn2)[C@H](O)[C@H](C)O1 | inactive | inactive | – | –
